Values of other authors in patent US20020028759A1, “Detergent compositions” (Unilever Home & Personal Care USA, Division of Conopco, Inc., priority 1999, published 2002).
Like-named read-outs stand apart in the source and are kept apart here.

Conditions: 20° C.
[1] = other common materials, by contrast

Row | Water Solubility (g/100 g) (highly water-soluble materials) | SMILES | Water Solubility (g/100 g) [1] [g/100 g]
1 | – | O=BO[O-].[Na+] [Sodium perborate anhydrous] | 3.7
2 | – | O=P(O)(O)OP(=O)(O)OP(=O)(O)O [Sodium tripolyphosphate anhydrous] | 15
3 | >100 | NC(N)=O [Urea] | –
